Assay results as given in patent publication US20230088717A1, “NEW IMMUNOSTIMULATORS AND USE THEREOF IN IMMUNOTHERAPY” (NANTES UNIVERSITÉ, priority 2020, published 2023).
Read-outs that look alike come from different tables or passages of the source.

Experiments:
iNKT cells [1] = assay: iNKT cell activation: cytokine secretion (ELISA) after co-culture with glycolipid-loaded CD1d-transfected HEK293 or HeLa cells; type: cell-based, human; settings: for LogEC50 IFN-γ / LogEC50 IL-2 / LogEC50 IL-13 / EC50: 6 h co-culture; for Delta LogEC50 IFN-γ / Delta LogEC50 IL-2 / Delta LogEC50 IL-13: KRN7000 vs 6-PEG3-NH2-GalCer; for EC50: Homo sapiens, iNKT, 6 h
Description: (§1) Classically, CD1d expressing cells are incubated overnight in presence or in the absence of the compound to be assessed, allowing loading on the CD1d molecule. Then, CD1d cells are co-incubated with iNKTs. Six hours of co-culture are sufficient to be able to detect most of the cytokine release (such as IFN-γ, IL-13 and/or IL-2) in the supernatant. Various time of incubation, up to 48H, can be performed depending of the kinetic of some late cytokines (such as IL-10). The quantity or concentration of at least one cytokine is thus measured in the supernatant after an incubation time of from 6 hours to 48 hours. An increased quantity or concentration of at least one cytokine in the presence of the assessed compound by comparison to in its absence means that said compound is a iKNT stimulator.
(§2) To analyse ability of 6-PEG3-NHR-GalCer 2 and 6-Mal-PEGn-GalCer 3 to activate iNKTs, several types of presenting cells were used, such as HEK293 or HeLa cells transfected to express CD1d molecule on their membrane. Non-transfected cells were also used as negative control “at first glance” since presentation of glycolipids to iNKT cells is known to be dependent on CD1d.
(§3) These cells were then used as antigen presenting cells (APC) to compare the iNKT cell activation potency of the canonical α-GalCer (KRN7000) ligand to that of the analogue 6″-modified with an aminoPEG linking arm 6-PEG3-NH2-GalCer 2a. APC were loaded with glycolipids after co-incubation at various concentrations overnight. Next day, cells were washed and co-cultured with iNKTs (2 APC for 1 iNKT). After 6 hours, supernatants were collected, and cytokines secretions (IFN-γ and IL-2 for Th1 panel and IL-13 for Th2 panel) was measured by ELISA (FIGS. 2 and 3)
(§4) 6-PEG3-NHR-GalCer analogues of 6-PEG3-NH2-GalCer 2a were evaluated on transfected CD1d and non-CD1d Hela and HEK293 cells for secretion of INF-γ and IL13 stimulation (see FIGS. 10 and 11).

iNKT cells [2] = assay: iNKT cell activation: cytokine secretion after co-culture with glycolipid-loaded non-transfected (non-CD1d) tumor cells; type: cell-based, human; settings: for secretion of cytokines: non-CD1d Hela and HEK293 cells
Description: as §1, §2, §3
To confirm this discovery, various other colon, lung, embryonic kidney, cervical cancer cells lines were screened by RT-PCR to define those that express small levels of CD1d and to confirm their ability to self-present the new potent iNKT agonist (see Table 6).
as §4

iNKT cells in PBMC = assay: iNKT phenotyping: expansion of iNKT cells in PBMC, CD8+/CD4+; type: cell-based, human; settings: PBMC cultured ten days with high dose of glycolipid (FIG. 8)
Description: Comparative study was run to establish either a CD4 or CD8 orientation of the immune response can be induced using 6-PEG3-NH2-GalCer 2a vs KRN7000 (see FIG. 8). PBMC were cultured in presence of an high dose of KRN or 6-PEG3-NH2-GalCer 2a, after ten days, phenotype of iNKTs was analysed by Flow Cytometry.

CD1d = target: T1, CD1d (Homo sapiens, UniProt P15813); assay: CD1d-dependency of iNKT activation: cytokine secretion in presence of anti-CD1d antibody; type: cell-based
T1 construct: endogenous in cells; host or cells: HEK293 (non-transfected) and HEK293-CD1d (transfected to express CD1d)
Description: It was then checked whether iNKT cells activation might be provided by a very low expression of CD1d on the proper non-CD1d tumor cells that cannot be detected by flow cytometry. To this aim, the same activation experiments were performed but in presence of an anti-CD1d antibody. HEK293 cells and HEK293-CD1d were loaded with 6-PEG3-NH2-GalCer a2 as described previously. Before co-culture with iNKTs cells, loaded presenting cells were co-incubated with the anti-CD1d antibody for 1 hours, iNKTs were added directly in suspension and co-cultured 6 hours before cytokine analysis in supernatant (ELISA). If activation signal was provided by presentation of the modified glycolipid through CD1d, it was expected to observe a blockage, or at least a decrease, of cytokine secretion after blocking the signal with the anti-CD1d antibody.

HeLa-CD1d spheroid = assay: Cytotoxicity induced by iNKTs on HeLa-CD1d 3D spheroid model; type: cell-based; settings: 72 hours, preliminary data (FIG. 9B)
HeLa-CD1d cells = assay: Cytotoxicity induced by iNKTs on HeLa-CD1d cells (flow cytometry); type: cell-based; settings: HeLa CD1d transfected cells, 24 hours co-culture (FIG. 7)
Description: Moreover, 6-PEG3-NH2-GalCer 2a is not only one of a strongest activator of iNKTs cells known for cytokine secretions, but that he is also able to induce a better iNKT cytotoxicity effect than KRN7000. iNKT were co-cultured with HeLa CD1 d transfected cells for 24 hours in presence of various concentration of glycolipids, then, mortality of target HeLa-CD1d cells was analysed by Flow Cytometry.

[3] = HEK293 (embryonic kidney), non transfected, as presenting cells
[4] = HeLa (cervix), non transfected, as presenting cells
[5] = Meso13 (mesotheliome) as presenting cells
[6] = Meso34 (mesotheliome) as presenting cells
[7] = Meso225 (mesotheliome) as presenting cells
[8] = SW1116 (colon) as presenting cells

T1 sequence (P15813 20-335): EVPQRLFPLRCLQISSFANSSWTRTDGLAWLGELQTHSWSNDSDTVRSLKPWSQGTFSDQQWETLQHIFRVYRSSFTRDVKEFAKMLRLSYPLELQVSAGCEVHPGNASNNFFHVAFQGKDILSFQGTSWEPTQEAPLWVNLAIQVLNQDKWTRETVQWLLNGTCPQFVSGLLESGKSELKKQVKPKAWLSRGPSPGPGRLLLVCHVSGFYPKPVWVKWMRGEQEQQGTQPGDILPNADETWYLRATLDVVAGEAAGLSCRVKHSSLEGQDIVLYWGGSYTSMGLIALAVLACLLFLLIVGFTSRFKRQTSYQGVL
T1 sequence (P61769 21-119 partner): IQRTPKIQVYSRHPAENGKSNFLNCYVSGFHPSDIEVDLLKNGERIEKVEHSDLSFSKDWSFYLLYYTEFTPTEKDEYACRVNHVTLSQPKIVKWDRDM

CCCCCCCCCCCCCCCCCCCCCCCCCC(=O)N[C@@H](CO[C@H]1O[C@H](CO)[C@H](O)[C@H](O)[C@H]1O)[C@H](O)[C@H](O)CCCCCCCCCCCCCC [KRN7000, reference compound]
LogEC50 IFN-γ (iNKT cells [1]; HEK293-CD1d presenting cells): −8.447
LogEC50 IL-2 (iNKT cells [1]; HEK293-CD1d presenting cells): −8.680
LogEC50 IL-13 (iNKT cells [1]; HEK293-CD1d presenting cells): −7.956
LogEC50 IFN-γ (iNKT cells [1]; HeLa-CD1d presenting cells): −8.653
LogEC50 IL-2 (iNKT cells [1]; HeLa-CD1d presenting cells): −9.315
LogEC50 IL-13 (iNKT cells [1]; HeLa-CD1d presenting cells): −7.841
IFN-γ secretion 10^−7M (iNKT cells [2]; [3]): Low
IFN-γ secretion 10^−7M (iNKT cells [2]; [4]): Low
IFN-γ secretion 10^−7M (iNKT cells [2]; [5]): Low
IFN-γ secretion 10^−7M (iNKT cells [2]; [6]): Low
IFN-γ secretion 10^−7M (iNKT cells [2]; [7]): Low
IFN-γ secretion 10^−7M (iNKT cells [2]; [8]): Low
secretion of cytokines (iNKT cells [2]): very poorly active or ineffective
CD8+ / CD4+ orientation of the iNKT response (iNKT cells in PBMC): seems to not distinguish CD4+ to CD8+ cells stimulation

CCCCCCCCCCCCCCCCCCCCCCCCCC(=O)N[C@@H](CO[C@H]1OC(COC(=O)NCCOCCOCCOCCNC(=O)CCOCCOCCOCCOCCOCCOCCNC(=O)CCN2C(=O)C=CC2=O)[C@H](O)C(O)[C@@H]1O)[C@H](O)[C@H](O)CCCCCCCCCCCCCC (some centres unmarked) [6-Mal-PEG6-GalCer 3a]
iNKT activation potency (cytokine release) relative to KRN7000 (iNKT cells [1]; general statement, presenting cells not specified at the place): ~10 fold

CCCCCCCCCCCCCCCCCCCCCCCCCC(=O)N[C@@H](CO[C@H]1OC(COC(=O)NCCOCCOCCOCCN)[C@H](O)C(O)[C@@H]1O)[C@H](O)[C@H](O)CCCCCCCCCCCCCC (some centres unmarked) [6-PEG3-NH2-GalCer 2a]
cytokine secretion / iNKT activation potency relative to KRN7000 (iNKT cells [1]; CD1d-transfected HEK293 / HeLa cells): ~100 fold
Delta LogEC50 IFN-γ (iNKT cells [1]; HEK293-CD1d): 2.333
Delta LogEC50 IL-2 (iNKT cells [1]; HEK293-CD1d): 1.55
Delta LogEC50 IL-13 (iNKT cells [1]; HEK293-CD1d): 2.534
Delta LogEC50 IFN-γ (iNKT cells [1]; HeLa-CD1d): 1.877
Delta LogEC50 IL-2 (iNKT cells [1]; HeLa-CD1d): 1.495
Delta LogEC50 IL-13 (iNKT cells [1]; HeLa-CD1d): 2.089
EC50 (iNKT cells [1]; HEK293-CD1d presenting cells, read-out: LogEC50 IFN-γ (converted)): 16.6 pM
EC50 (iNKT cells [1]; HEK293-CD1d presenting cells, read-out: LogEC50 IL-2 (converted)): 58.9 pM
EC50 (iNKT cells [1]; HEK293-CD1d presenting cells, read-out: LogEC50 IL-13 (converted)): 32.4 pM
EC50 (iNKT cells [1]; HeLa-CD1d presenting cells, read-out: LogEC50 IFN-γ (converted)): 29.5 pM
EC50 (iNKT cells [1]; HeLa-CD1d presenting cells, read-out: LogEC50 IL-2 (converted)): 15.5 pM
EC50 (iNKT cells [1]; HeLa-CD1d presenting cells, read-out: LogEC50 IL-13 (converted)): 117 pM
IFN-γ secretion 10^−7M (iNKT cells [2]; HCT116 (colon) as presenting cells): Low
IFN-γ secretion 10^−7M (iNKT cells [2]; [3]): High
IFN-γ secretion 10^−7M (iNKT cells [2]; [4]): High
IFN-γ secretion 10^−7M (iNKT cells [2]; [5]): High
IFN-γ secretion 10^−7M (iNKT cells [2]; [6]): High
IFN-γ secretion 10^−7M (iNKT cells [2]; [7]): High
IFN-γ secretion 10^−7M (iNKT cells [2]; [8]): High
secretion of cytokines (iNKT cells [2]): significant dose response secretion of cytokines
inhibition of cytokine (IL-2) secretion by anti-CD1d antibody (CD1d; CD1d-HEK293 positive cells (FIG. 5A)): only an incomplete inhibition
inhibition of cytokine (IL-2) secretion by anti-CD1d antibody (CD1d; non transfected (non CD1d) HEK293 cells (FIG. 5B)): almost completely eliminated
CD8+ / CD4+ orientation of the iNKT response (iNKT cells in PBMC): induces a higher cytotoxic CD8+ response from PBMC cells than KRN7000
induction of cell death compared with KRN7000 (HeLa-CD1d spheroid): more efficient than KRN7000 to induce cell death
efficiency to induce iNKT cytotoxicity relative to KRN7000 (HeLa-CD1d cells): ≥ 10 fold
